Laboratory results from ChEMBL document CHEMBL3885881, “DrugMatrix”.

Organism: Rattus norvegicus
Assay: DrugMatrix - Regimen: Daily Repeat
Assay type: toxicity, organism-based, Sprague-Dawley
Set-up: regimen Daily Repeat, gender Male, age 6-8 weeks
Details: in vivo, po, route oral GAVAGE, vehicle .5 % CMC; for BASOPHIL / EOSINOPHIL / ERYTHROCYTE COUNT / HEMATOCRIT / HEMOGLOBIN / LEUKOCYTE COUNT / LYMPHOCYTE / MEAN CORPUSCULAR HEMOGLOBIN / MEAN CORPUSCULAR HEMOGLOBIN CONCENTRATION / MEAN CORPUSCULAR VOLUME / MONOCYTE / NEUTROPHIL / PLATELET COUNT: tissue Blood; for ALANINE AMINOTRANSFERASE / ALBUMIN / ALKALINE PHOSPHATASE / ASPARTATE AMINOTRANSFERASE / BLOOD UREA NITROGEN / CHLORIDE / CHOLESTEROL / CREATINE PHOSPHOKINASE / CREATININE / GLUCOSE / PHOSPHORUS / POTASSIUM / SODIUM / TOTAL BILIRUBIN / TOTAL PROTEIN: tissue Plasma
[1] = 0 mg/kg, 72 h, dose level Control, time 3 day
[2] = 0 mg/kg, 120 h, dose level Control, time 5 day
[3] = 3 mg/kg, 72 h, dose level Low, time 3 day
[4] = 3 mg/kg, 120 h, dose level Low, time 5 day

## O=C1CCC(N2C(=O)c3ccccc3C2=O)C(=O)N1 (configuration not stated) [THALIDOMIDE]
[1]
  BASOPHIL: 1.52%
  EOSINOPHIL: 0.98%
  ERYTHROCYTE COUNT: 6.96 x10E6/uL
  HEMATOCRIT: 44.65%
  HEMOGLOBIN: 13.62 G/DL
  LEUKOCYTE COUNT: 9.83 x10E3/uL
  LYMPHOCYTE: 76.48%
  MEAN CORPUSCULAR HEMOGLOBIN: 19.57 pg
  MEAN CORPUSCULAR HEMOGLOBIN CONCENTRATION: 30.47 G/DL
  MEAN CORPUSCULAR VOLUME: 64.22 fL
  MONOCYTE: 2.13%
  NEUTROPHIL: 18.6%
  PLATELET COUNT: 1217.17 x10E3/uL
  ALANINE AMINOTRANSFERASE: 41 u/L
  ALBUMIN: 3.77 G/DL
  ALKALINE PHOSPHATASE: 411.83 u/L
  ASPARTATE AMINOTRANSFERASE: 62.83 u/L
  BLOOD UREA NITROGEN: 15.17 mg/dL
  CHLORIDE: 104.33 MEQ/L
  CHOLESTEROL: 71.17 mg/dL
  CREATINE PHOSPHOKINASE: 123.5 u/L
  CREATININE: 0.55 mg/dL
  GLUCOSE: 182.67 mg/dL
  PHOSPHORUS: 11.23 mg/dL
  POTASSIUM: 7.03 MEQ/L
  SODIUM: 148 MEQ/L
  TOTAL BILIRUBIN: 0.57 mg/dL
  TOTAL PROTEIN: 6.85 G/DL
[2]
  BASOPHIL: 1.35%
  EOSINOPHIL: 0.43%
  ERYTHROCYTE COUNT: 6.96 x10E6/uL
  HEMATOCRIT: 44.35%
  HEMOGLOBIN: 13.98 G/DL
  LEUKOCYTE COUNT: 9.45 x10E3/uL
  LYMPHOCYTE: 80.83%
  MEAN CORPUSCULAR HEMOGLOBIN: 20.1 pg
  MEAN CORPUSCULAR HEMOGLOBIN CONCENTRATION: 31.52 G/DL
  MEAN CORPUSCULAR VOLUME: 63.72 fL
  MONOCYTE: 2.37%
  NEUTROPHIL: 14.05%
  PLATELET COUNT: 1298 x10E3/uL
  ALANINE AMINOTRANSFERASE: 42.17 u/L
  ALBUMIN: 3.77 G/DL
  ALKALINE PHOSPHATASE: 419 u/L
  ASPARTATE AMINOTRANSFERASE: 66.67 u/L
  BLOOD UREA NITROGEN: 16.67 mg/dL
  CHLORIDE: 103.17 MEQ/L
  CHOLESTEROL: 66.33 mg/dL
  CREATINE PHOSPHOKINASE: 148.33 u/L
  CREATININE: 0.58 mg/dL
  GLUCOSE: 196.83 mg/dL
  PHOSPHORUS: 11.8 mg/dL
  POTASSIUM: 6.47 MEQ/L
  SODIUM: 148.33 MEQ/L
  TOTAL BILIRUBIN: 0.53 mg/dL
  TOTAL PROTEIN: 6.77 G/DL
[3]
  BASOPHIL: 1.53%
  EOSINOPHIL: 0.27%
  ERYTHROCYTE COUNT: 6.9 x10E6/uL
  HEMATOCRIT: 43.27%
  HEMOGLOBIN: 13.43 G/DL
  LEUKOCYTE COUNT: 12.1 x10E3/uL
  LYMPHOCYTE: 84.1%
  MEAN CORPUSCULAR HEMOGLOBIN: 19.47 pg
  MEAN CORPUSCULAR HEMOGLOBIN CONCENTRATION: 31.03 G/DL
  MEAN CORPUSCULAR VOLUME: 62.73 fL
  MONOCYTE: 2.13%
  NEUTROPHIL: 11.37%
  PLATELET COUNT: 1452.67 x10E3/uL
  ALANINE AMINOTRANSFERASE: 33 u/L
  ALBUMIN: 3.63 G/DL
  ALKALINE PHOSPHATASE: 276 u/L
  ASPARTATE AMINOTRANSFERASE: 53.33 u/L
  BLOOD UREA NITROGEN: 11 mg/dL
  CHLORIDE: 103 MEQ/L
  CHOLESTEROL: 57.67 mg/dL
  CREATINE PHOSPHOKINASE: 135.33 u/L
  CREATININE: 0.5 mg/dL
  GLUCOSE: 177.33 mg/dL
  PHOSPHORUS: 12.77 mg/dL
  POTASSIUM: 6.87 MEQ/L
  SODIUM: 148.67 MEQ/L
  TOTAL BILIRUBIN: 0.33 mg/dL
  TOTAL PROTEIN: 6.27 G/DL
[4]
  BASOPHIL: 2.03%
  EOSINOPHIL: 0.3%
  ERYTHROCYTE COUNT: 6.85 x10E6/uL
  HEMATOCRIT: 42.57%
  HEMOGLOBIN: 13.47 G/DL
  LEUKOCYTE COUNT: 11.43 x10E3/uL
  LYMPHOCYTE: 80.43%
  MEAN CORPUSCULAR HEMOGLOBIN: 19.63 pg
  MEAN CORPUSCULAR HEMOGLOBIN CONCENTRATION: 31.7 G/DL
  MEAN CORPUSCULAR VOLUME: 62.13 fL
  MONOCYTE: 3.03%
  NEUTROPHIL: 13.67%
  PLATELET COUNT: 1535.33 x10E3/uL
  ALANINE AMINOTRANSFERASE: 37 u/L
  ALBUMIN: 3.47 G/DL
  ALKALINE PHOSPHATASE: 320 u/L
  ASPARTATE AMINOTRANSFERASE: 57 u/L
  BLOOD UREA NITROGEN: 12 mg/dL
  CHLORIDE: 102.67 MEQ/L
  CHOLESTEROL: 62.33 mg/dL
  CREATINE PHOSPHOKINASE: 138 u/L
  CREATININE: 0.5 mg/dL
  GLUCOSE: 187.67 mg/dL
  PHOSPHORUS: 11.93 mg/dL
  POTASSIUM: 6.03 MEQ/L
  SODIUM: 146.33 MEQ/L
  TOTAL BILIRUBIN: 0.3 mg/dL
  TOTAL PROTEIN: 6.13 G/DL
